According to US5869494A, “Uses for barbituric acid analogs” (priority 1997, dated 1999):
Where two headings read alike, the source gives them in different places.

How the values were obtained:
[1] = system: MCF-7 human breast cancer cells; assay: Cytotoxicity for breast cancer cell line MCF-7 (MTT assay); format: cell-based; conditions: read-out: Percent cell kill; for cytotoxicity at 50 µg/mL: 50 μg/ml; for cytotoxicity at 100 µg/mL: 100 μg/ml; for cytotoxicity at 150 µg/mL: 150 μg/ml
Protocol: (§1) In the following examples, tumor cells were treated with varying concentrations of compounds C1, C2, C4 or C5 dissolved in absolute ethanol. To limit any non-specific toxicity, the final concentration of ethanol was not allowed to exceed 0.5%. Stock concentrations of 5 mg/ml or 20 mg/ml were used. Viability of cells was determined in some studies by the trypan blue dye exclusion method. In other studies, cell viability/proliferation activity was determined by MTT assay by using a kit obtained from Promega, (Promega Corp., Madison, Wis. 53711). For this assay, a 100 μl cell suspension containing 5-10^3 monolayer cells or 1×10^5 suspension cells was placed in the wells of a 96-well microtiter plate. After overnight incubation, cells were treated with different concentrations of the test compound. Control wells received vehicle only. After 24, 48, 72 or 96 h of incubation, 50 μl of MTT dye solution was added. After 4 h of incubation at 37° C., 100 μl of solubilization/stop solution was added. After another h of incubation, cells were mixed using a multi-channel pipet and the absorption of the dye color was recorded at 570 nm using a plate reading absorption spectrophotometer.
(§2) After the incubation period, viability of the cells was determined by MTT assay (Promega Corp., Madison, Wis. 53711).

[2] = In vivo toxicity, repeat oral dose; set-up: species or system BALB/c mice; conditions: for mortality: group of three mice
Protocol: In preliminary repeat dose studies, a suspension of C1 in polyethylene glycol (C1 is mixed with a 2.5% solution of polyethylene glycol and homogenized in a sterile dounce homogenizer until it flows freely through a 22×11/2" with 11/4 mm ball feeding needle) was administered orally to a group of three BALB/c mice.

[3] = In vivo toxicity, single escalating oral dose; conditions: BALB/c mice
Protocol: A single escalating dose of the test drag is a procedure where a dose is administered to a group of mice (in this case n=3). If toxicity is not elicited, the next higher dose is given to a fresh group of mice and so on until toxicity is observed.

[4] = system: L1210 mouse leukemia cells; assay: Cytotoxicity for leukemia cells (L1210); format: cell-based; conditions: for cytotoxicity at 50 µg/mL / cytotoxicity at 110 µg/mL / cytotoxicity at 150 µg/mL: Mus musculus; for cytotoxicity at 50 µg/mL: 50 μg/ml; for cytotoxicity at 110 µg/mL: 110 μg/ml; for cytotoxicity at 150 µg/mL: 150 μg/ml
Protocol: as §1
The viability of the cells was […]

human prostate tumors = assay: Established human prostate tumors implanted in mice, intramuscular treatment; format: in vivo; conditions: 100 mg/kg intramuscular, alternate days, after 5 weeks
Protocol: Similar experiments were carried out where implanted human prostate tumors (2×2 mm) were allowed to become established. Eight days later, the tumor size was ≈5×5 mm. Treatment was initiated which consisted of intramuscular injections of C1 (100 mg/kg) given on alternate days. After 5 weeks of treatment, tumors were not detectable by palpation in 2 of 3 animals. […] Untreated control mice (n=3), had tumors at 5 weeks of average size of 10×9mm.

[5] = system: DU-145 human prostate cancer cells; assay: Cytotoxicity for prostate cancer cell line DU-145 (MTT assay); format: cell-based; conditions: read-out: Percent cell kill; for cytotoxicity at 50 µg/mL: 50 μg/ml; for cytotoxicity at 100 µg/mL: 100 μg/ml; for cytotoxicity at 150 µg/mL: 150 μg/ml
Protocol: as §1, §2

[6] = system: PC-3 human prostate cancer cells; assay: Cytotoxicity for prostate cancer cell line PC-3 (MTT assay); format: cell-based; conditions: read-out: Percent cell kill; for cytotoxicity at 50 µg/mL: 50 μg/ml; for cytotoxicity at 100 µg/mL: 100 μg/ml; for cytotoxicity at 150 µg/mL: 150 μg/ml
Protocol: as §1, §2

[7] = system: Herpes simplex virus (HSV); assay: Inactivation of Herpes simplex virus (plaque assay on Vero cells); format: cell-based; conditions: for PFU/ml: control 7.1 × 10^5
Protocol: The control sample received vehicle only. After the incubation period, samples were serially diluted and 0.1 ml of each dilution and the undiluted samples were inoculated into monolayers of Vero cells (African green monkey kidney cells). Overlay medium was added and the monolayers were incubated at 37° C. After 3 days of incubation, the overlay medium was removed, and the monolayer cells were fixed with methanol and treated with Giemsa stain.

[8] = system: Daudi human lymphoma cells; assay: Cytotoxicity for lymphoma cells (Daudi); format: cell-based; conditions: for cytotoxicity at 50 µg/mL / cytotoxicity at 100 µg/mL / cytotoxicity at 150 µg/mL: Homo sapiens, Daudi; for cytotoxicity at 50 µg/mL: 50 μg/ml; for cytotoxicity at 100 µg/mL: 100 μg/ml; for cytotoxicity at 150 µg/mL: 150 μg/ml, read-out: % Cytotoxicity
Protocol: as §1
The viability of the cells was
Compounds C4 and C5 were also tested for toxicity against human lymphoma Daudi cells.

[9] = system: BT-20 human breast cancer cells; assay: Cytotoxicity for breast cancer cell line BT-20 (MTT assay); format: cell-based; conditions: read-out: Percent cell kill; for cytotoxicity at 50 µg/mL: 50 μg/ml; for cytotoxicity at 100 µg/mL: 100 μg/ml; for cytotoxicity at 150 µg/mL: 150 μg/ml
Protocol: as §1, §2

[10] = 48 h, all concentrations tested
[11] = Vero, 150 μg/ml, 24 h at 37° C.

## CCCCN1C(=O)CC(=O)N(CCCC)C1=S [Compound C1, 4,6(1H, 5H)-pyrimidinedione, 1,3-dibutyldihydro-2-thioxo]
[1]; MCF7, 24 h, 24 hr
  cytotoxicity at 50 µg/mL: 39.5 ± 10.5%
  cytotoxicity at 100 µg/mL: 57.3 ± 1.5%
  cytotoxicity at 150 µg/mL: 87.8 ± 8.8%
[1]; MCF7, 48 h, 48 hr
  cytotoxicity at 50 µg/mL: 67.5 ± 5.3%
  cytotoxicity at 100 µg/mL: 92.8 ± 4.9%
  cytotoxicity at 150 µg/mL: 92.3 ± 5.3%
[1]; MCF7, 72 h, 72 hr
  cytotoxicity at 50 µg/mL: 85.8 ± 3.8%
  cytotoxicity at 100 µg/mL: 88 ± 5.4%
  cytotoxicity at 150 µg/mL: 84.5 ± 5.1%
[1]; MCF7, 96 h, 96 hr
  cytotoxicity at 50 µg/mL: 97.8 ± 1.7%
  cytotoxicity at 100 µg/mL: 97.8 ± 1.7%
  cytotoxicity at 150 µg/mL: 96.5 ± 2.5%
[2]; 400 mg/kg daily oral, 10 days
  tolerability and survival: easily tolerated and all animals survived the treatment
[2]; 800 mg/kg daily oral
  mortality: one animal died on day three and another died on day 10
[2]; 1000 mg/kg daily oral
  mortality: one animal died on day 2, another on day 5 and a third animal died on day 10
[2]; 1200 mg/kg daily oral
  mortality: all animals died on day 3
[3]
  lethal single dose: 2000 mg/kg
[3]; mouse, in vivo, read-out: single dose easily tolerated
  MTD: ≥ 1200 mg/kg
[4]; [10]
  killing of cells: over 99%
[4]; L1210, 24 h, 24 hr
  cytotoxicity at 50 µg/mL: 81.2 ± 4.3%
  cytotoxicity at 110 µg/mL: 93.5 ± 3.1%
  cytotoxicity at 150 µg/mL: 89.2 ± 3.2%
[4]; L1210, 48 h, 48 hr
  cytotoxicity at 50 µg/mL: 99%
  cytotoxicity at 150 µg/mL: 99.9%
[4]; L1210, 48 h, 48 hr, read-out: % Cytotoxicity
  cytotoxicity at 110 µg/mL: 99.9%
Human prostate tumors
  tumors not detectable by palpation: 2 of 3
[5]; DU-145, 24 h, 24 hr
  cytotoxicity at 50 µg/mL: 0%
  cytotoxicity at 100 µg/mL: 27.5 ± 6.4%
  cytotoxicity at 150 µg/mL: 43 ± 2.9%
[5]; DU-145, 48 h, 48 hr
  cytotoxicity at 50 µg/mL: 0%
  cytotoxicity at 100 µg/mL: 52.2 ± 3.4%
  cytotoxicity at 150 µg/mL: 71 ± 7.3%
[5]; DU-145, 72 h, 72 hr
  cytotoxicity at 50 µg/mL: 23.5 ± 4.5%
  cytotoxicity at 100 µg/mL: 58.7 ± 2.1%
  cytotoxicity at 150 µg/mL: 78.7 ± 3.4%
[5]; DU-145, 96 h, 96 hr
  cytotoxicity at 50 µg/mL: 26.2 ± 5.5%
  cytotoxicity at 100 µg/mL: 64 ± 4.2%
  cytotoxicity at 150 µg/mL: 82.5 ± 3.7%
[6]; 24 h, 24 hr
  cytotoxicity at 50 µg/mL: 61.7 ± 10%
  cytotoxicity at 100 µg/mL: 88.7 ± 5.5%
  cytotoxicity at 150 µg/mL: 90.5 ± 7.1%
[6]; 48 h, 48 hr
  cytotoxicity at 50 µg/mL: 91 ± 3.6%
  cytotoxicity at 100 µg/mL: 92.7 ± 1.2%
  cytotoxicity at 150 µg/mL: 94.9 ± 5.3%
[6]; 72 h, 72 hr
  cytotoxicity at 50 µg/mL: 100%
  cytotoxicity at 100 µg/mL: 100%
  cytotoxicity at 150 µg/mL: 100%
[6]; 96 h, 96 hr
  cytotoxicity at 50 µg/mL: 100%
  cytotoxicity at 100 µg/mL: 100%
  cytotoxicity at 150 µg/mL: > 96%
[7]; 30 μg/ml, 24 h at 37° C.
  PFU/ml: 2.1 × 10^5 PFU/ml
[7]; 120 μg/ml, 24 h at 37° C.
  PFU/ml: 6.5 × 10^5 PFU/ml
[7]; 150 μg/ml, 24 h at 37° C.
  PFU/ml: 7.5 × 10^5 PFU/ml
[7]; Vero, 24 h
  log reduction at 120 µg/mL: 2.04
[7]; Vero, 24 h, read-out: % Inactivation
  killing at 120 µg/mL: 99%
[7]; Vero, 30 μg/ml, 24 h at 37° C.
  killing at 30 µg/mL: 70.4%
  log reduction at 30 µg/mL: 0.53
[7]; Vero, 60 μg/ml, 24 h at 37° C.
  killing at 60 µg/mL: 78.9%
  log reduction at 60 µg/mL: 0.68
[7]; [11]
  killing at 150 µg/mL: 99.9%
  log reduction at 150 µg/mL: 3
[8]; [10]
  killing of cells: over 99%
[8]; 24 h
  cytotoxicity at 50 µg/mL: 91.3 ± 4.6%
  cytotoxicity at 100 µg/mL: 93.3 ± 4.9%
[8]; 24 h, 24 hr
  cytotoxicity at 150 µg/mL: 94 ± 4.9%
[8]; 48 h
  cytotoxicity at 50 µg/mL: 99.9%
  cytotoxicity at 100 µg/mL: 99.9%
[8]; 48 h, 48 hr
  cytotoxicity at 150 µg/mL: 99.9%
[9]; BT-20, 24 h, 24 hr
  cytotoxicity at 50 µg/mL: 43.3 ± 4.1%
  cytotoxicity at 100 µg/mL: 62 ± 7.9%
  cytotoxicity at 150 µg/mL: 94 ± 4.2%
[9]; BT-20, 48 h, 48 hr
  cytotoxicity at 50 µg/mL: 65.5 ± 2.4%
  cytotoxicity at 100 µg/mL: 91.3 ± 2.5%
  cytotoxicity at 150 µg/mL: 96.5 ± 2.4%
[9]; BT-20, 72 h, 72 hr
  cytotoxicity at 50 µg/mL: 73.3 ± 2.9%
  cytotoxicity at 100 µg/mL: 86.8 ± 3.6%
  cytotoxicity at 150 µg/mL: 86 ± 3.6%
[9]; BT-20, 96 h, 96 hr
  cytotoxicity at 50 µg/mL: 100%
  cytotoxicity at 100 µg/mL: 100%
  cytotoxicity at 150 µg/mL: 100%
